Measured values: patent US10106684B2, “Method for making Schiff base” (KING FAHD UNIVERSITY OF PETROLEUM AND MINERALS, priority 2016, dated 2018)

Test: Fluorescence titration of compound 1 with Cu^2+ (Stern-Volmer plot, detection limit)
Type: binding
Description: All of the absorption and emission studies were carried out in mixed aqueous solutions of water and methanol (4:1) containing HEPES buffer (10 mM, pH 7.4) at a concentration of 20 μM and 0.2 μM respectively. Emission studies were carried out by addition of 10 equiv of various biologically and non-biologically relevant metal cations to an aqueous-MeOH (4:1) solution of compound 1 at a concentration level of 0.2 μM and their complexation abilities were studies by fluorescence. […] Importantly, none of the other cations induced any such distinct emission shift or quenching (FIG. 7). […] Fluorescence titration of compound 1 with Cu^2+ was carried out in aqueous MeOH (4:1) solution at a concentration level of 0.2 μM. The addition of Cu^2+ to the solution of compound 1 caused a complete quenching of the fluorescent emission and the peak at 525 nm (Φ=0.32) is “switched off” when excited at 502 nm (FIG. 9). […]
Thus, it can be assumed that the quenching of the fluorescence of compound 1 by Cu^2+ ion is a static quenching mode due to the formation of a non-fluorescent complex in the ground state. […] From the Stern-Volmer linear plot (FIG. 14) the binding constant of compound 1 with Cu^2+ was calculated to be 1.0×10^7 L·mol^−1 (error limits≤10%).

## Cn1ccnc1/C=N/N1C(=O)c2ccccc2C12c1ccc(O)cc1Oc1cc(O)ccc12 [compound 1, Fluorescein-N-methylimidazole conjugate]
0.2 μM compound, excitation 502 nm
  effect of Cu^2+ on fluorescence emission at 525 nm: completely quenched
H2O:MeOH (4:1), HEPES 10 mM, pH 7.4, λex=502 nm, error limits≤10%
  binding constant with Cu^2+ from Stern-Volmer linear plot: 1e+07 L/mol
